Paper PMC7822874, “Chemoprotective antimalarials identified through quantitative high-throughput screening of Plasmodium blood and liver stage parasites” (Scientific Reports, 2021)
Like-named read-outs stand apart in the source and are kept apart here.

Tests used:
[1] = system: P. berghei-ANKA-GFP-LucCON liver stage parasites in HepG2-A16-CD81EGFP cells; assay: P. berghei liver stage Pb-Luc assay, Method 1 (UCSD, 1536-well); format: cell-based, Plasmodium berghei; details: Plasmodium berghei, 48 h, P. berghei liver stage, average of 2 wells on a 1536 well plate; for activity at 1 µM: 1 µM compound treatment (10 mM stocks); for activity at 3 µM: 3 µM compound treatment (10 mM stocks)
[2] = system: Plasmodium falciparum Dd2 asexual blood stage parasites; assay: microbe, parasite or virus in culture; set-up: species or system Plasmodium falciparum Dd2 in human erythrocytes; single determination (one 11-point concentration-response curve); details: Plasmodium falciparum, DD2, Erythrocyte, 72 h; read-out: AC50
[3] = system: HepG2-A16-CD81EGFP cells; details: average of 2 wells; for HepG2 1uM growth rep1 / HepG2 1uM growth rep2: HepG2, 1 µM compound treatment (10 mM stocks); for HepG2 1uM growth rep1 / HepG2 3uM growth rep1: replicate 1, normalized; for HepG2 1uM growth rep2 / HepG2 3uM growth rep2: replicate 2, normalized; for HepG2 3uM growth rep1 / HepG2 3uM growth rep2: HepG2, 3 µM compound treatment (10 mM stocks)
[4] = replicate 1, normalized, read-out: PbLuc 1uM growth rep1
[5] = replicate 2, normalized, read-out: PbLuc 1uM growth rep2
[6] = replicate 1, normalized, read-out: PbLuc 3uM growth rep1
[7] = replicate 2, normalized, read-out: PbLuc 3uM growth rep2

Cc1cc(C)c(C)c(S(=O)(=O)NCc2ccc(C(=O)N3CCCCC3)cc2)c1C [MLS000547926-01]
activity at 1 µM [1, 4]: 124% | activity at 1 µM [1, 5]: 129% | activity at 3 µM [1, 6]: 104% | activity at 3 µM [1, 7]: 108% | AC50 [2]: 3.76 µM | HepG2 1uM growth rep1 [3]: 93% | HepG2 1uM growth rep2 [3]: 95% | HepG2 3uM growth rep1 [3]: 87% | HepG2 3uM growth rep2 [3]: 94%

CCCCc1c(C)c(C#N)c2nc3ccccc3n2c1Nc1c(C)n(C)n(-c2ccccc2)c1=O [MLS000555448-01]
activity at 1 µM [1, 4]: 131% | activity at 1 µM [1, 5]: 125% | activity at 3 µM [1, 6]: 114% | activity at 3 µM [1, 7]: 127% | AC50 [2]: 2.66 µM | HepG2 1uM growth rep1 [3]: 92% | HepG2 1uM growth rep2 [3]: 93% | HepG2 3uM growth rep1 [3]: 87% | HepG2 3uM growth rep2 [3]: 94%

Cc1noc(C)c1CSc1nc2sc3c(c2c(=O)n1C)CCCC3 [MLS000564913-01]
activity at 1 µM [1, 4]: 120% | activity at 1 µM [1, 5]: 107% | activity at 3 µM [1, 6]: 61% | activity at 3 µM [1, 7]: 89% | AC50 [2]: 8.41 µM | HepG2 1uM growth rep1 [3]: 92% | HepG2 1uM growth rep2 [3]: 88% | HepG2 3uM growth rep1 [3]: 88% | HepG2 3uM growth rep2 [3]: 92%

COc1cccc(C2C3=C(N=c4sc(=Cc5ccccc5O)c(=O)n42)c2ccccc2CC3)c1OC (stereo not drawn) [MLS000580951-01]
activity at 1 µM [1, 4]: 115% | activity at 1 µM [1, 5]: 99% | activity at 3 µM [1, 6]: 96% | activity at 3 µM [1, 7]: 91% | AC50 [2]: 2.99 µM | HepG2 1uM growth rep1 [3]: 91% | HepG2 1uM growth rep2 [3]: 93% | HepG2 3uM growth rep1 [3]: 90% | HepG2 3uM growth rep2 [3]: 96%

Cc1cc(C)n(-c2nnc(N3CCN(c4ccccc4)CC3)nn2)n1 [MLS000695202-01]
activity at 1 µM [1, 4]: 122% | activity at 1 µM [1, 5]: 82% | activity at 3 µM [1, 6]: 91% | activity at 3 µM [1, 7]: 76% | AC50 [2]: 0.596 µM | HepG2 1uM growth rep1 [3]: 99% | HepG2 1uM growth rep2 [3]: 95% | HepG2 3uM growth rep1 [3]: 90% | HepG2 3uM growth rep2 [3]: 98%

CCOC(=O)c1c(NC(=O)C[n+]2ccc(N(C)C)cc2)sc(C)c1C [MLS000710762-01]
activity at 1 µM [1, 4]: 75% | activity at 1 µM [1, 5]: 72% | activity at 3 µM [1, 6]: 18% | activity at 3 µM [1, 7]: 30% | AC50 [2]: 1.33 µM | HepG2 1uM growth rep1 [3]: 91% | HepG2 1uM growth rep2 [3]: 84% | HepG2 3uM growth rep1 [3]: 65% | HepG2 3uM growth rep2 [3]: 65%

C/C(=N\Nc1nc(-c2ccccc2O)nc2ccccc12)c1ccccc1 [MLS000714167-01]
activity at 1 µM [1, 4]: 134% | activity at 1 µM [1, 5]: 124% | activity at 3 µM [1, 6]: 108% | activity at 3 µM [1, 7]: 121% | AC50 [2]: 0.75 µM | HepG2 1uM growth rep1 [3]: 91% | HepG2 1uM growth rep2 [3]: 94% | HepG2 3uM growth rep1 [3]: 91% | HepG2 3uM growth rep2 [3]: 97%

CCN(CC)CCN1C(=O)c2ccccc2NC1c1ccc(Br)cc1 (stereo not drawn) [MLS000723891-01]
activity at 1 µM [1, 4]: 82% | activity at 1 µM [1, 5]: 70% | activity at 3 µM [1, 6]: 13% | activity at 3 µM [1, 7]: 21% | AC50 [2]: 1.5 µM | HepG2 1uM growth rep1 [3]: 103% | HepG2 1uM growth rep2 [3]: 94% | HepG2 3uM growth rep1 [3]: 84% | HepG2 3uM growth rep2 [3]: 91%

Cc1ccc(-c2cc(C(F)(F)F)n3ncc(C(=O)N4CCCCC4c4cccnc4)c3n2)cc1 (stereo not drawn) [MLS000729132-01]
activity at 1 µM [1, 4]: 126% | activity at 1 µM [1, 5]: 132% | activity at 3 µM [1, 6]: 100% | activity at 3 µM [1, 7]: 119% | AC50 [2]: 1.88 µM | HepG2 1uM growth rep1 [3]: 101% | HepG2 1uM growth rep2 [3]: 94% | HepG2 3uM growth rep1 [3]: 89% | HepG2 3uM growth rep2 [3]: 91%

O=C(Nc1ccc(C2=NCCN2)cc1)c1ccc(C(=O)Nc2ccc(C3=NCCN3)cc2)c(Cl)c1 [MLS000737368-01]
activity at 1 µM [1, 4]: 107% | activity at 1 µM [1, 5]: 94% | activity at 3 µM [1, 6]: 72% | activity at 3 µM [1, 7]: 81% | AC50 [2]: 0.473 µM | HepG2 1uM growth rep1 [3]: 102% | HepG2 1uM growth rep2 [3]: 94% | HepG2 3uM growth rep1 [3]: 85% | HepG2 3uM growth rep2 [3]: 95%

O=C(Nc1ccc(Nc2ccncc2)cc1)c1ccc(Nc2ccnc3ccc([N+](=O)[O-])cc23)cc1 [MLS000766132-01]
activity at 1 µM [1, 4]: 125% | activity at 1 µM [1, 5]: 103% | activity at 3 µM [1, 6]: 94% | activity at 3 µM [1, 7]: 98% | AC50 [2]: 0.75 µM | HepG2 1uM growth rep1 [3]: 92% | HepG2 1uM growth rep2 [3]: 91% | HepG2 3uM growth rep1 [3]: 89% | HepG2 3uM growth rep2 [3]: 92%

COc1ccc(Nc2cc(C)nc(NCc3ccccc3)n2)cc1 [MLS000768693-01]
activity at 1 µM [1, 4]: 94% | activity at 1 µM [1, 5]: 74% | activity at 3 µM [1, 6]: 21% | activity at 3 µM [1, 7]: 35% | AC50 [2]: 13.3 µM | HepG2 1uM growth rep1 [3]: 90% | HepG2 1uM growth rep2 [3]: 91% | HepG2 3uM growth rep1 [3]: 82% | HepG2 3uM growth rep2 [3]: 84%
